How the values were obtained:
U937 cells [1] = experiment: CD marker expression in PMA treated U937 cells (flow cytometry); type: cell-based, human
Protocol: Human monocytic U937 cells derived from pleural effusion were seeded at 5×10^5 cells/mL in a 24 well plate or on the underside of a culture insert with 3.25×10^5 cells per well with 100 nM phorbol 12-myristate 13-acetate (PMA) (dissolved in DMSO; <1% v/v) in complete RPMI medium (10% v/v FBS, 1% v/v penicillin-streptomycin, 2 mM L-glutamine). Cells were incubated for 72 h at 37° C., 5% v/v CO2 in a humidified incubator to differentiate the cells to mature macrophages. Following PMA incubation, media was replaced with fresh CCM and incubated for a further 24 h rest period. After the 24 h rest phase, U937/MØ were ready for co-culture assembly. U937/MØ cells were prepared in line with when epithelial cells were ready, i.e. day 5 for A549 and day 10 for hAELVi cells.
FIG. 3 illustrates the expression profiles of selected CD markers in PMA treated U937 cells and primary alveolar macrophages (pAM). CD markers are: (A) CD 11a, (B) CD 11b, (C) CD 14, (D) CD 36 and (E) CD 206. U937 cells treated with (0 nM, 5 nM, and 100 nM) PMA for 24 h to-96 h followed by a 24 h rest period in fresh culture medium. Expression of CD markers was measured by flow cytometry and are presented as median fluorescent intensity (MFI±SEM). […]

U937 cells [2] = experiment: Phagocytic activity of PMA treated U937 cells; type: cell-based, human; settings: 72 h, 100 nM PMA differentiation protocol
Text: FIG. 4 illustrates the phagocytic activity of PMA treated U937 cells and primary alveolar macrophages (pAM). Percentage of phagocytic cells (mean±SEM) from PMA treated U937 cells. (n=9) for each time point for U937 cells and n=3 for primary cells.

U937 cells [3] = experiment: Morphology of U937 cells with exposure to PMA; type: cell-based, human; settings: 72 h, 100 nM PMA differentiation protocol
Protocol: FIG. 5 illustrates the morphology of U937 cells with exposure to PMA. U937 cells were cultured on chamber slides with medium supplemented with either 0 nM, 5 nM or 100 nM PMA and incubated for 24 h, 48 h, 72 h and 96 h followed by a 24 h recovery phase in fresh medium. Non-adherent PMA naive cells required centrifuge preparation. Primary human alveolar macrophages were harvested for morphological comparison. The cells were photographed at ×400 magnification with an inverted light microscope. (50 um scale bar).

U937 cells [4] = experiment: Long-term proliferation of PMA treated U937 cells (Guava ViaCount assay); type: cell-based, human; settings: 100 nM PMA
Protocol: FIG. 6 illustrates the long-term proliferation of PMA treated U937 cells. […] Cell proliferation was assessed using Guava ViaCount assay via flow cytometry for 10,000 events. Results shown are representative for two repeated experiments performed in triplicate. Viable cells/mL are shown as mean±SD.

[5] = system: differentiated U937 cells; experiment: Phospholipidosis accumulation in differentiated U937 cells in co-culture set ups (HCS LipidTOX Green); type: cell-based, human; settings: 10 μM amiodarone; differentiated U937 cells in three co-culture set ups
Protocol: The phospholipid accumulation was assessed using HCS LipidTOX™ Green phospholipidosis detection reagent. Phospholipidosis accumulation was detected in differentiated U937 cells cultured in LLI in three different co-culture set ups: A) Type I/II cells cultured in mixed 10:1 ratio in apical compartment, differentiated U937 (lilac) cells cultured at the basolateral compartment B) Type I/II cells cultured as a layers in a 10:1 ratio in apical compartment, differentiated U937 cells cultured at the basolateral compartment (blue), C) Type I cells cultured in the apical compartment and differentiated U937 cells were seeded on the underside of Transwell® inserts (green). […] A total of 5000 events were acquired on the flow cytometer.

[6] = system: differentiated U937 cells (MØ); experiment: Phagocytic activity of differentiated U937 cells in mono-culture and co-cultures in the presence of LPS; type: cell-based, human; settings: 10 ng/mL LPS, 24 h; both co-culture systems
Protocol: FIG. 23 illustrates a comparison of macrophages in mono-culture and co-cultures phagocytosis of microspheres. Differentiated U937 cells (MØ), MØ cells cultured with hAELVi cells (T I model) or A549 cells (T II model) exposed to 10 ng/mL LPS (+LPS) for 24 h. Phagocytosis assays were performed after 2 h incubation with 1.0 μm FluoSpheres™ Carboxylate-Modified microspheres using fluorescent microscopy. Images at 40× magnification. Scale bar is 100 μm.
FIGS. 24A and 24B illustrate phagocytic activity of differentiated U937 cells (MØ) in mono-culture and co-cultures in the presence of LPS. MØ cells cultured with hAELVi cells (T I model) or A549 cells (T II model) exposed to 10 ng/mL LPS (+LPS) for 24 h. Phagocytosis assays were performed after 2 h incubation with 1.0 μm FluoSpheres™ Carboxylate-Modified microspheres using flow cytometry. Cells were gated for 1000 events (A) per sample. […] Percentage of cells above the gated (R3) threshold (B) of mono and co-cultures. A one way ANOVA was used to determine significance for each treatment group and Tukey's multiple comparison post hoc test employed when* p<0.05, *** : p<0.0001 where n=3 independent models.

[7] = system: T I model (hAELVi + MØ), T II model (A549 + MØ); experiment: LDH release from co-cultures with LPS (cell health); type: cell-based, human; settings: 10 ng/mL LPS, 24 h; both co-culture models
Protocol: FIGS. 25A and 25B illustrate the comparison of mono-culture and co-culture construction on cell health. Percentage of maximum LDH released into supernatants from cell populations normalised to 0.1% v/v Triton-X 100 positive control. LDH released from co-cultures: (T I) hAELVi and (T II) A549 cells in co-culture with MØ cells were assessed (A). MØ cells cultured with hAELVi cells (T I model) or A549 cells (T II model) were exposed to 10 ng/mL LPS (+LPS) for 24 h (B). A one way ANOVA was used to determine significance for each treatment group and Tukey's multiple comparison post hoc test employed when* p<0.05, p<0.001 Data shown represent n=6 data points±SD of three independent cell model experiments.

[8] = system: differentiated U937 cells (MØ), T I model, T II model; experiment: CD marker expression in LPS stimulated alveoli models (flow cytometry); type: cell-based, human; settings: 10 ng/mL LPS, 24 h
Protocol: FIG. 17 illustrates CD marker expressions in LPS stimulated and non-stimulated alveoli models. Differentiated U937 cells (MØ), MØ cells cultured with hAELVi cells (T I model) or A549 cells (T II model) exposed to 10 ng/mL LPS (+LPS) for 24 h. Direct immunofluorescent staining assays for CD 11 b (A &C) and CD 36 (B & D) surface markers were performed using flow cytometry. A total of 5000 gated events were collected for each sample. MFI (median fluorescent intensity) data shown as mean±sd (n=9) for 3 independent models for Dunnett's post hoc test after one-way ANOVA where *#:p<0.005, *** :p<0.0001 vs MØ and MØ+LPS respectively.

co-culture models = experiment: IL-8 secretion of co-culture models after LPS (ELISA); type: cell-based, human; settings: 100 ng/ml LPS
Protocol: FIG. 36 illustrates extent of immune response using IL-8 secretion. […] IL-8 levels detected from supernatants of co-culture models cultured under LLI/ALI post exposure to 100 ng/ml LPS. The IL-8 levels were quantified using ELISA assay. […] N=4, * indicates (p<0.05).

[9] = system: hAELVi and A549 cells in co-culture with MØ cells; experiment: TEER of alveolar epithelial cells in co-culture with LPS; type: cell-based, human; settings: 10 ng/mL LPS, 24 h
Protocol: FIGS. 26A and 26B illustrate the impact of LPS on barrier properties of alveolar epithelial cells in co-culture. TEER measurements of (T I) hAELVi and (T II) A549 cells in co-culture with MØ cells. MØ cells cultured with hAELVi cells (T I model) or A549 cells (T II model) were exposed to 10 ng/mL LPS (+LPS) for 24 h. A one-way ANOVA was used to determine significance for each treatment group. Data shown represent n=3 of three independent cell model experiments (p>0.05).

[10] = system: MØ, T I model, T II model; experiment: Human cytokine profile of mono-culture and co-culture models in LPS (array membranes); type: cell-based; settings: LPS 100 ng/mL, 24 h
Protocol: FIG. 18 illustrates human cytokine profile of lower airway for ALI cell models. Detection of spots on array membranes from supernatant collect from mono-culture and co-cultures of: differentiated U937 cells (MØ) with LPS (MØ+LPS), hAELVi TI cells (T I), A549 TII cells (T II), type I co-culture model: hAELVi and MØ (T I model) with LPS (T I model+LPS), type II co-culture model: A549 and MØ (T II model) with LPS (T II model+LPS). Models were untreated or stimulated with 100 ng/mL LPS for 24 h. Controls are shown as positive (green) and negative (red). Data represents four independent Transwell® inserts. […] The data analysed in more detail in below figures.
FIG. 21 illustrates human cytokine profile of lower airway; T I &T I I models in the presence of LPS. […] Data represents mean signal intensity (AU) of each protein spot from the blot detected using chemiluminescence imaging and quantified using imageJ software for four independent Transwell® inserts±sd. […]
FIG. 22 illustrates human cytokine profile of lower airway of mono-culture and co-culture models in LPS. […] Data analysed by two-way ANOVA with Bonferroni post hoc test of non-stimulated cells vs LPS stimulation. […]

## CCCCCCCCCCCCCC(=O)O[C@@H]1[C@@H](C)[C@@]2(O)[C@@H](C=C(CO)C[C@]3(O)C(=O)C(C)=C[C@@H]23)[C@@H]2C(C)(C)[C@]12OC(C)=O [PMA, phorbol-12-myristate-13-acetate]
U937 cells [1]; PMA treated U937 cells
  expression of CD36 and CD206 (M2 markers): low
U937 cells [1]; U937 cells, 100 nM PMA, 72 h, 24 h rest, compared with primary human alveolar macrophages
  expression of cell surface markers selected to identify an alveolar macrophage phenotype (CD 11a, CD 11b, CD 14): optimally expressed
U937 cells [2]
  phagocytic functionality: same phagocytic functionality of primary human alveolar macrophages
U937 cells [3]
  cell morphology: most similar morphology to primary human alveolar macrophages
U937 cells [4]; 24 h exposure
  cell proliferation: reduced
U937 cells [4]; 96 h exposure
  cell proliferation: no

## CCCCc1oc2ccccc2c1C(=O)c1cc(I)c(OCCN(CC)CC)c(I)c1 [amiodarone]
[5]
  phospholipidosis accumulation: detected

## lipopolysaccharide [LPS]
[6]
  ability to phagocytose (1.0 μm microspheres): retain their ability to phagocytose
[7]
  cell viability (LDH release): not adversely affected
[8]
  macrophage activation (CD11 b expression, absence of CD36 expression): likely to drive the macrophages to M1 type activation
co-culture models; all models
  IL-8 secretion: significantly increased
co-culture models; combination type I and II epithelial models
  IL-8 secretion: significantly elevated
[9]
  barrier properties of the alveolar type I epithelial cells (TEER): not compromised
[10]
  cytokine markers (signal intensity on array): elevated

— patent publication US20230158068A1 (priority 2020, published 2023)
